Test results reported in patent US20240368212A1, “SELECTIVE ISONITRILE INHIBITORS OF CYTOCHROME P450 SUBTYPES” (priority 2021, published 2024).
pIC50, pKd: −log10 of the molar value. Entries after “also recorded” stand apart in the source; their conditions may differ. Like-named read-outs stand apart in the source and are kept apart here.

Tests used:
CYP17A1 [1] = biological target: T1, CYP17A1 (Homo sapiens, UniProt P05093); experiment: Ligand binding assay, UV-visible difference spectra titration; details: for spectroscopic evidence of binding to CYP17A1 (heme spectral shift): result in words
T1 sequence (P05093 1-508): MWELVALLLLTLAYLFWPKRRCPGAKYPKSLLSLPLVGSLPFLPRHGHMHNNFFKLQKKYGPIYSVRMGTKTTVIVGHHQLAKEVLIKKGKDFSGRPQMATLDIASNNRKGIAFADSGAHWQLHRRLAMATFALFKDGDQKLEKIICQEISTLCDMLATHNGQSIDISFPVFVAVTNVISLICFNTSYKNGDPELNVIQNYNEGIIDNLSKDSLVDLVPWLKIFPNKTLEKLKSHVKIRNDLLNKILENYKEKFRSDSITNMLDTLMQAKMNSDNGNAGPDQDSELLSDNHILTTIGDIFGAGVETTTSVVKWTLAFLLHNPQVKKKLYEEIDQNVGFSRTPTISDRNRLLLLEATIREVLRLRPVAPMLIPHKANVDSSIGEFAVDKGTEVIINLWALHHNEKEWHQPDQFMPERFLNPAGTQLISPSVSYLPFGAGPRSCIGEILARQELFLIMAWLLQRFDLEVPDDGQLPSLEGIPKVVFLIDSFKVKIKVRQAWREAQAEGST
Experimental: Ligand binding assays. (Adapted from DeVore, N M, et al. (2009). Drug Metabolism and Disposition, 37(6), 1319-1327.) Ligand interaction with the heme iron was evaluated by titrating ligands into a cuvette containing purified CYP17A1, CYP2D6, or CYP3A4 and measured using a UV-visible scanning spectrophotometer. […] Ligands dissolved in DMSO were added to the sample cuvette and an equal volume of DMSO to the reference cuvette. Difference spectra were recorded from 300-500 nm after equilibration of enzyme and ligand. Binding to the enzyme was measured as the difference in maximal and minimal absorbance: A387-A419 for pregnanolone and 3-formyl pregnanolone, and A435-A393 for 3-formyl pregnanolone-20-isonitrile with CYP17A1; A434-A414 for 3-formyl pregnanolone-20-isonitrile with CYP3A4 and CYP2D6. […] All data fitting was accomplished using GraphPad Prism 9.

CYP106A2 = CYP106A2 (Priestia megaterium, UniProt Q06069); experiment: Optical difference spectrum titration of CYP106A2; format: binding, bacterial; details: result in words
Excerpt: FIGS. 3A-3C show the optical difference spectra when various compounds are titrated with CYPs. […] The maximum absorbance was at 430 nm and the trough was at 393 nm. […] The trough was at 418 nm.
Ligand binding assays. […] All data fitting was accomplished using GraphPad Prism 9.

CYP17A1 [2] = biological target: T2, CYP17A1 (Homo sapiens, UniProt P05093); experiment: Inhibition assay, 17α-hydroxylation of progesterone by CYP17A1; format: biochemical
T2 sequence (P05093 24-508 limits assumed): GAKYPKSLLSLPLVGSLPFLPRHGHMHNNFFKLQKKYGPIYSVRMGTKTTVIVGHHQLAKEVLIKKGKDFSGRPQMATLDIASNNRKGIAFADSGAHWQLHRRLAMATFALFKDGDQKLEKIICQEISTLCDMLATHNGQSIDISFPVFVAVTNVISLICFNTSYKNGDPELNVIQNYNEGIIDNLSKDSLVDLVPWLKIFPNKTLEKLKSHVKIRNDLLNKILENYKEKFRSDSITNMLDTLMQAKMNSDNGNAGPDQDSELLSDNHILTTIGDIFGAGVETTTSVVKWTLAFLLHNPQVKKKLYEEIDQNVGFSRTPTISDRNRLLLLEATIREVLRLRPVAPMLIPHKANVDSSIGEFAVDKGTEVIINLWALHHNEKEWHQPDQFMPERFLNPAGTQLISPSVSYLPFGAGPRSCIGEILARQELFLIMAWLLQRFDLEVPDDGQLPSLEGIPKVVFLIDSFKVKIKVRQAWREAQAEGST
Experimental: (Adapted from DeVore, NM, Scott, EE. (2012). Nature, 482(7383), 116-119.) Metabolic activity of CYP17A1 was evaluated by measuring 17α-hydroxylation of progesterone as detected HPLC with UV detection at 240 nm. A 1:4 ratio of CYP17A1 to recombinant NADPH-cytochrome P450 reductase was mixed and incubated on ice for 20 minutes. […] Reaction vials were warmed to 37° C. for three minutes, then catalysis was initiated by adding NADPH to a final concentration of 1 mM. After 10 minutes, metabolism was quenched by adding 300 μL of 20% trichloroacetic acid and placed on ice. The reaction vials were centrifuged to pellet the precipitated protein, then the supernatant was injected onto a C18 column (Phenomenex, Luna, 50×4.6 mm) for HPLC. The 30-minute HPLC method ran at 0.8 m/min and started with a mobile phase of 60% acetonitrile, 40% water with 0.2% acetic acid for five minutes, increased to 80% acetonitrile over 10 minutes, held at 80% acetonitrile for five minutes, 100% acetonitrile for five minutes, then returned to 60% acetonitrile to prepare for the next sample. Metabolite elution was normalized to β-estradiol as an internal standard. A standard curve of known product concentrations was used to convert normalized area under curve to amount of product produced. […]

Chain of CYP106A2 (Q06069 whole entry): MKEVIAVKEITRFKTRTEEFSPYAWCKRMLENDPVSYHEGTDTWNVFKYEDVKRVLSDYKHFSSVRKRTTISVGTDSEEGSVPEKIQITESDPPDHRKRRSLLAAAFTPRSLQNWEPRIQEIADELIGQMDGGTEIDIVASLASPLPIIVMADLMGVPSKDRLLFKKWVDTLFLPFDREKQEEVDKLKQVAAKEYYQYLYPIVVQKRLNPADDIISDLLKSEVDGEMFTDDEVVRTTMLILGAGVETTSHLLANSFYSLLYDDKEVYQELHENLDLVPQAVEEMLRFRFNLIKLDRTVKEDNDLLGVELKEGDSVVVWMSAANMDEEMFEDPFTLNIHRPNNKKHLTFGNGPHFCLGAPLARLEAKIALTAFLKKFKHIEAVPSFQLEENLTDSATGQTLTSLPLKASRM

Molecule	pKd (CYP17A1 [1]; CYP17A1 0.2 μM, tight binding, only estimates, read-out: Kd)	spectroscopic evidence of binding to CYP17A1 (heme spectral shift) (CYP17A1 [1])	spectroscopic evidence of binding to CYP106A2 (Fe—CN—R bond formation) (CYP106A2)	spectroscopic evidence of binding to CYP106A2 (Fe—CN—R bond formation) (CYP106A2; listed as 3)	pKd (CYP17A1 [1])	pIC50 (CYP17A1 [2]; CYP17A1 progesterone hydroxylation, 11.5 μM progesterone)	inhibition of CYP17A1 progesterone hydroxylation (CYP17A1 [2]; result in words, FIG. 5B)
C[C@]12CC[C@H](O)CC1=CC[C@@H]1[C@@H]2CC[C@]2(C)C(c3cccnc3)=CC[C@@H]12 [abiraterone, reference compound]	> 7.00						
3β-formyl-(R)-(20-isonitrilo)pregnane [20-(R)-16]		binds tightly	no evidence for formation of a Fe—CN—R bonded complex	no evidence of binding			
[C-]#[N+][C@H](C)[C@H]1CC[C@H]2[C@@H]3CC[C@H]4C[C@@H](OC=O)CC[C@]4(C)[C@H]3CC[C@]12C [Compound 16]		induced the expected heme spectral shift from 417 to 428 nm; also recorded: bound to CYP17A1; also recorded: bind very tightly			> 7.00	5.89	inhibited
